{"source": "patent US20230302036A1", "about": "“COMPOSITIONS FOR TREATMENT OF SPINAL MUSCULAR ATROPHY” (priority 2020, published 2023)", "key": {"[1]": {"tested_on": "endogenous SMN2 E7 alternative splicing", "assay": "SMN2 E7 alternative splicing by radioactive RT-PCR in HEK293T cells", "assay_type": "cell-based, human", "settings": "for effect of the drug on ASO1's effect on E7 inclusion: HEK293T transfected with 25 nM ASO1, increasing doses of TSA 24 hr; for effect of the drug on ASO1's effect on E7 inclusion / effect on SMN2 E7 inclusion, agent alone: 25 µM 5-AZA 48 hr; for effect on SMN2 E7 inclusion, agent alone: 25 nM ASO, 3 µM TSA 24 hr, 3 µM CPT", "description": "Alternative splicing was analyzed by radioactive RT-PCR followed by native polyacrylamide gel electrophoresis and autoradiography. Bars display means ± SD of percentage of the radioactivity in the FL band over the sum of radioactivity measurements in the FL and ΔE7 bands of at least three independent transfection experiments. A two-tailed Student’s t test was used to determine the significance between events. (FIG. 1A) HEK293T cells were co-transfected with the SMN2 minigene and expression vectors for WT^res and hC4 Pol II, followed by addition of α-amanitin. (FIG. 1B) Effect of camptothecin (CPT) on SMN2 E7 alternative splicing. HEK293T cells were incubated for at least 6 hours with 3 µM CPT. Combined effects on endogenous SMN2 E7 alternative splicing of transfection with 25 nM ASO1 and treatment with 3 µM TSA for 24 hr (FIG. 1C), 10 mM VPA for 24 hr (FIG. 1D), or 25 µM 5-AZA for 48 hr (FIG. 1E). Combined effects on HEK293T endogenous SMN2 E7 alternative splicing of transfection with 25 nM each of si-hnRNPA1 and si-hnRNPA2, and treatment with 3 µM TSA for 24 hr (FIG. 1F) or 10 mM VPA for 24 hr (FIG. 1G). […]\nHEK293T, HeLa, and SMA type I homozygous and carrier fibroblasts 3813 and 3814 (Coriell Cell Repositories, Camden, New Jersey, United States) were grown in Dulbecco’s modified Eagle’s medium (DMEM) containing 4.5 g of glucose and 10% fetal bovine serum (Gibco) at 37° C. Cells were plated at a density of 2×10^5 cells per well in 12-well plates 24 hr before transfection. siRNA (25 nM), plasmid (500 ng), or ASO (25 nM) transfections were performed 24 hr after cells were plated, using 3 µl of Lipofectamine 2000 (Thermo Fisher Scientific) per well in 12-well plates. 24-48 h later, cells were treated with Trichostatin A (Sigma, T8552), Valproic Acid (Sigma, P4543), 5-Azacytidine (Sigma, A2385) or vehicle for the indicated time, and harvested for downstream procedures. […]"}, "[2]": {"tested_on": "endogenous SMN2 E7 alternative splicing in HeLa cells", "assay": "SMN2 E7 alternative splicing by radioactive RT-PCR in HeLa cells", "assay_type": "cell-based, human", "settings": "10 nM ASO1 and 3 µM TSA 24 hr", "description": "(§1) Combined effects on endogenous SMN2 E7 alternative splicing in transfected (FIG. 5A) HEK293T cells with 25 nM ASO1 and increasing doses of TSA for 24 hr, (FIG. 5B) HeLa cells with 10 nM ASO1 and 3 µM TSA for 24 hr., and (FIG. 5C) SMA patient fibroblasts (3813) with 10 nM ASO1 and 3 µM TSA for 24 hr. Bars display means ± SD of percentage of the radioactivity in the FL band over the sum of radioactivity measurements in the FL and ΔE7 bands of at least three independent transfection experiments. (FIG. 5D and FIG. 5E) Transcriptional activation was assessed by RT-qPCR. (FIG. 5F) HEK293T cells with 3 nM ASO1 and 10 mM VPA for 24 hr. Bars indicate mean transcriptional activation ± SD ratios between precursors of SMN2 and GAPDH as the control gene. Statistical significance was analyzed by two-tailed Student’s t-tests. P < 0.05 was considered statistically significant.\n(§2) HEK293T, HeLa, and SMA type I homozygous and carrier fibroblasts 3813 and 3814 (Coriell Cell Repositories, Camden, New Jersey, United States) were grown in Dulbecco’s modified Eagle’s medium (DMEM) containing 4.5 g of glucose and 10% fetal bovine serum (Gibco) at 37° C. […]"}, "[3]": {"tested_on": "endogenous SMN2 E7 alternative splicing in SMA patient fibroblasts", "assay": "SMN2 E7 alternative splicing by radioactive RT-PCR in SMA patient fibroblasts (3813)", "assay_type": "cell-based, human", "settings": "10 nM ASO1 and 3 µM TSA 24 hr", "description": "as §1, §2"}, "[4]": {"tested_on": "SMN2 pre-mRNA", "assay": "Transcriptional activation by RT-qPCR of SMN2 pre-mRNA in HEK293T cells", "assay_type": "cell-based, human", "settings": "HDAC inhibitor alone"}, "[5]": {"tested_on": "H3K9me2 along the SMN2 gene", "assay": "ChIP-qPCR of H3K9me2 distribution along the SMN2 gene in HEK293T cells", "assay_type": "cell-based, human", "settings": "HEK293T; ASO transfection or 10 mM VPA", "experimental": "(§3) H3K9me2 (FIG. 2B), total RNAPII (FIG. 2C), P-Ser5 RNAPII (FIG. 2D), and P-Ser2 RNAPII (FIG. 2E) distribution along the SMN2 gene, assessed by ChIP-qPCR in HEK293T cells transfected with the scramble oligo (CTRL) or ASO1 and treated with 10 mM VPA. Four independent immunoprecipitation replicates were conducted per experiment. Data are represented as mean ± S.D. (n = 4, *p < 0.05, two-tailed Student’s t test).\n(§4) Total distribution of H3K9me2 (FIG. 3C), total RNAPII (FIG. 3D), P-Ser5 RNAPII (FIG. 3E), and P-Ser2 RNAPII (FIG. 3F) along the SMN2 gene is shown. This distribution was assessed by ChIP-qPCR in HEK293T cells transfected with the scramble oligo (CTRL) or ASO2 and treated with 10 mM VPA. Four independent immunoprecipitation replicates were conducted per experiment. Data are represented as mean ± S.D. (n = 4, *p < 0.05, two-tailed Student’s t test).\nApproximately 2×10^6 HEK293T cells per sample were treated for 10 min in 1% (v/v) formaldehyde at room temperature to crosslink protein-DNA complexes. Crosslinking was stopped with glycine at a final concentration of 125 mM. Cells were washed twice with cold PBS and swelled on ice for 10 min in 25 mM HEPES pH 8, 1.5 mM MgCl2, 10 mM KCl, 0.1% NP-40, 1 mM DTT and 1× protease inhibitor cocktail set III (Calbiochem). Following Dounce homogenization, the nuclei were collected and resuspended in 1 ml sonication buffer (50 mM HEPES pH 8, 140 mM NaCl, 1 mM EDTA, 0.1% sodium deoxycholate, 0.1% SDS and 1× protease inhibitor cocktail). DNA was sonicated in an ultrasonic bath (Bioruptor Diagenode) to an average length of 200-500 bp. After addition of 1% (v/v) Triton X-100, samples were centrifuged at 15,000 ×g. Supernatants were immunoprecipitated O/N with 40 µl of pre-coated anti-IgG magnetic beads (Dynabeads M-280, Invitrogen) previously incubated with the antibody of interest for 6 hr at 4° C. The antibodies used were: rabbit anti-H3 (2 µg, Abcam ab1791), mouse anti-H3K9me2 (4 µg, Abcam ab1220), rabbit anti H3K9me3 (4 µg, Abcam ab8898), rabbit anti H3K9Ac (2 µg, Abcam ab4441), rabbit anti Rpb1 NTD (2 µg, Cell Signaling, D8L4Y), rabbit Phospho-Rpb1 CTD Ser2 (2 µg, Cell Signaling, E1Z3G), rabbit Phospho-Rpb1 CTD Ser5 (2 µg, Cell Signaling, D9N5I). Control immunoprecipitations were performed with rabbit IgG (1 µg, Abcam ab171870). […] Immunoprecipitated DNA (1.5 µl) and serial dilutions of the 10% input DNA (1:4, 1:20, 1: 100, and 1:500) were analyzed by SYBR-Green real-time qPCR."}, "[6]": {"tested_on": "RNAPII (total, P-Ser5, P-Ser2) along the SMN2 gene", "assay": "ChIP-qPCR of RNAPII distribution along the SMN2 gene in HEK293T cells", "assay_type": "cell-based, human", "settings": "ASO transfection vs scramble", "experimental": "as §3, §4\nApproximately 2×10^6 HEK293T cells per sample were treated for 10 min in 1% (v/v) formaldehyde at room temperature to crosslink protein-DNA complexes. Crosslinking was stopped with glycine at a final concentration of 125 mM. Cells were washed twice with cold PBS and swelled on ice for 10 min in 25 mM HEPES pH 8, 1.5 mM MgCl2, 10 mM KCl, 0.1% NP-40, 1 mM DTT and 1× protease inhibitor cocktail set III (Calbiochem). Following Dounce homogenization, the nuclei were collected and resuspended in 1 ml sonication buffer (50 mM HEPES pH 8, 140 mM NaCl, 1 mM EDTA, 0.1% sodium deoxycholate, 0.1% SDS and 1× protease inhibitor cocktail). DNA was sonicated in an ultrasonic bath (Bioruptor Diagenode) to an average length of 200-500 bp. After addition of 1% (v/v) Triton X-100, samples were centrifuged at 15,000 ×g. Supernatants were immunoprecipitated O/N with 40 µl of pre-coated anti-IgG magnetic beads (Dynabeads M-280, Invitrogen) previously incubated with the antibody of interest for 6 hr at 4° C. The antibodies used were: rabbit anti-H3 (2 µg, Abcam ab1791), mouse anti-H3K9me2 (4 µg, Abcam ab1220), rabbit anti H3K9me3 (4 µg, Abcam ab8898), rabbit anti H3K9Ac (2 µg, Abcam ab4441), rabbit anti Rpb1 NTD (2 µg, Cell Signaling, D8L4Y), rabbit Phospho-Rpb1 CTD Ser2 (2 µg, Cell Signaling, E1Z3G), rabbit Phospho-Rpb1 CTD Ser5 (2 µg, Cell Signaling, D9N5I). Control immunoprecipitations were performed with rabbit IgG (1 µg, Abcam ab171870). Beads were washed sequentially for 5 min each in Low-salt (20 mM Tris-HCl pH 8, 150 mM NaCl, 2 mM EDTA, 1% Triton X-100, 0.1% SDS), High-Salt (20 mM Tris-HCl pH 8, 500 mM NaCl, 2 mM EDTA, 1% Triton X-100, 0.1% SDS) and LiCl buffer (10 mM Tris pH 8.0, 1 mM EDTA, 250 mM LiCl, 1% NP-40, 1% Na-deoxycholate) for 5 min at 4° C. and then twice in TE 1x for 2 min at room temperature. Beads were eluted in 1% SDS and 100 mM NaHCO3 buffer for 15 min at 65° C. and crosslinking was reversed for 6 hr after addition of NaCl to a final concentration of 200 mM. Chromatin was precipitated with ethanol overnight, treated with 20 µg proteinase K, and purified by phenol-chloroform extraction. Immunoprecipitated DNA (1.5 µl) and serial dilutions of the 10% input DNA (1:4, 1:20, 1: 100, and 1:500) were analyzed by SYBR-Green real-time qPCR."}, "[7]": {"tested_on": "H3K9me2 along SERF1A, MYOD, GAPDH", "assay": "Specificity control ChIP-qPCR of H3K9me2 on SERF1A, MYOD and GAPDH in HEK293T cells", "assay_type": "cell-based, human", "description": "FIGS. 6A-6D show antisense oligonucleotides and their effects on chromatin. […] Uppercase, exonic nucleotide sequence. Lowercase, intronic sequences. Upstream highlight, binding site for ASO1. Downstream highlight, binding site for ASO2. Levels of H3K9me2 deposition along small EDRK-rich factor 1A (SERF1A, upstream of SMN2) (FIG. 6B), Myoblast Determination Protein (MYOD) (FIG. 6C), and Glyceraldehyde 3-phosphate dehydrogenase (GAPDH) (FIG. 6D), were assessed by ChIP-qPCR in HEK293T cells. Data represented as mean ± S.D. (n = 4, *p < 0.05, two-tailed Student’s t test).\nApproximately 2×10^6 HEK293T cells per sample were treated for 10 min in 1% (v/v) formaldehyde at room temperature to crosslink protein-DNA complexes. Crosslinking was stopped with glycine at a final concentration of 125 mM. Cells were washed twice with cold PBS and swelled on ice for 10 min in 25 mM HEPES pH 8, 1.5 mM MgCl2, 10 mM KCl, 0.1% NP-40, 1 mM DTT and 1× protease inhibitor cocktail set III (Calbiochem). Following Dounce homogenization, the nuclei were collected and resuspended in 1 ml sonication buffer (50 mM HEPES pH 8, 140 mM NaCl, 1 mM EDTA, 0.1% sodium deoxycholate, 0.1% SDS and 1× protease inhibitor cocktail). […] Immunoprecipitated DNA (1.5 µl) and serial dilutions of the 10% input DNA (1:4, 1:20, 1: 100, and 1:500) were analyzed by SYBR-Green real-time qPCR."}, "[8]": {"tested_on": "SMN2 E7", "settings": "saturating doses; cited from earlier work"}}, "note": "Oligonucleotides are written 5' to 3', each unit as a sugar letter and its base; * is a phosphorothioate linkage, no mark a phosphodiester; rarer units and linkages stand in square brackets, end groups in braces. Plain capitals give the bases only. e = 2'-O-(2-methoxyethyl) (MOE); [5mC] = 5-methylcytosine", "data": [{"molecule": "Nc1ncn([C@@H]2O[C@H](CO)[C@@H](O)[C@H]2O)c(=O)n1", "note": "[5-AZA, 5-aza cytidine]", "values": [{"measurement": "effect of the drug on ASO1's effect on E7 inclusion", "setting": "[1]", "value": "enhanced the effects of ASO1 as effectively as the HDAC inhibitors"}, {"measurement": "effect on SMN2 E7 inclusion, agent alone", "setting": "[1]; HEK293T", "value": "no effect per se on E7 inclusion"}]}, {"molecule": "CC[C@@]1(O)C(=O)OCc2c1cc1n(c2=O)Cc2cc3ccccc3nc2-1", "note": "[CPT, camptothecin]", "values": [{"measurement": "effect on SMN2 E7 inclusion, agent alone", "setting": "[1]; HEK293T", "value": "promoted E7 skipping"}]}, {"molecule": "CC(/C=C/C(=O)NO)=C\\[C@@H](C)C(=O)c1ccc(N(C)C)cc1", "note": "[TSA, trichostatin A]", "values": [{"measurement": "effect of the drug on ASO1's effect on E7 inclusion", "setting": "[1]", "value": "dose-dependent"}, {"measurement": "effect on SMN2 E7 inclusion, agent alone", "setting": "[1]; HEK293T", "value": "less potent than ASO1 in upregulating E7 inclusion"}, {"measurement": "effect of hnRNPA1/A2 depletion in promoting E7 inclusion upon HDAC inhibitor treatment", "setting": "[1]; HEK293T, 25 nM each si-hnRNPA1 and si-hnRNPA2, no ASO1, 3 µM TSA or 10 mM VPA 24 hr", "value": "stronger"}, {"measurement": "cooperative effect of TSA with ASO1 on E7 inclusion", "setting": "[2]", "value": "reproducible"}, {"measurement": "cooperative effect of TSA with ASO1 on E7 inclusion", "setting": "[3]", "value": "reproducible"}, {"measurement": "levels of SMN2 pre-mRNA (promoter-proximal amplicon)", "setting": "[4]", "value": "increased the levels of SMN2 pre-mRNA"}]}, {"molecule": "ASO2: 5′-AAAGTATGTTTCTTCCACAC-3′ 2′-O-methoxyethyl phosphorothioate oligonucleotide; target in SMN2 intron 7 downstream of the ASO1 site (antisense eA*eA*eA*eG*eT*eA*eT*eG*eT*eT*eT*e[5mC]*eT*eT*e[5mC]*e[5mC]*eA*e[5mC]*eA*e[5mC])", "values": [{"measurement": "inhibition of SMN2 E7 inclusion, ASO2 combined with CPT", "setting": "[1]; HEK293T, 25 nM ASO2 in combination with 3 µM CPT 24 hr", "value": "stronger"}, {"measurement": "effect on SMN2 E7 inclusion, agent alone", "setting": "[1]; HEK293T", "value": "inhibited SMN2 E7 inclusion as efficiently as the elongation inhibitor CPT"}, {"measurement": "H3K9me2 marks along the SMN2 gene", "setting": "[5]", "value": "promoted H3K9 methylation"}, {"measurement": "P-Ser2 RNAPII density", "setting": "[6]", "value": "higher"}, {"measurement": "P-Ser5 RNAPII density", "setting": "[6]", "value": "higher"}, {"measurement": "total RNAPII density", "setting": "[6]", "value": "higher"}, {"measurement": "H3K9 dimethylation in control genes (same TAD: SERF1A; outside TAD: MYOD, GAPDH)", "setting": "[7]", "value": "neither ASO1 nor ASO2 promoted H3K9 dimethylation"}]}, {"molecule": "nusinersen: TCACTTTCATAATGCTGG; 2′-O-(2-methoxyethyl) phosphorothioate-modified antisense-oligonucleotide drug targeting a splicing silencer in SMN2 intron 7 (all 2'-MOE, all phosphorothioate, methylation of C not given here)", "values": [{"measurement": "inclusion of SMN2 E7", "setting": "[8]", "value": "nearly full inclusion of SMN2 E7"}]}]}
